Assay results: US20050208496A1, “Methods of testing for bronchial asthma or chronic obstructive pulmonary disease” (Genox Research, Inc., priority 2002, published 2005)
Like-named read-outs stand apart in the source and are kept apart here.

Tested on: respiratory epithelial cells
[1] = HG-U95E, lot 1, Day 3, AI (head as in Table 18)
[2] = HG-U95E, lot 1, Day 7, AI (no head printed, inferred)
[3] = HG-U95E, lot 2, Day 3, AI (no head printed, inferred)

IL-13: human IL-13 (Peprotech, Inc.) added to the medium at 50 ng/mL to stimulate respiratory epithelial cells
CRYM (38285_at) expression change upon IL-13 stimulation (HG-U95A, lot 2, Day 7, AI): −3.5 | CSPG2 (38112_g_at) expression change upon IL-13 stimulation (HG-U95A, lot 2, Day 7, AI): −2.5 | DHCR24 (36658_at) expression change upon IL-13 stimulation (HG-U95A, lot 2, Day 7, AI): −4.3 | DSG3 (33693_at) expression change upon IL-13 stimulation (HG-U95A, lot 2, Day 7, AI): −2.2 | E48 (36284_at) expression change upon IL-13 stimulation (HG-U95A, lot 2, Day 7, AI): −5.6 | EPHX1 (38790_at) expression change upon IL-13 stimulation (HG-U95A, lot 2, Day 7, AI): −5.1 | FACL2 (40082_at) expression change upon IL-13 stimulation (HG-U95A, lot 2, Day 7, AI): −2 | FMO3 (40665_at) expression change upon IL-13 stimulation (HG-U95A, lot 2, Day 7, AI): −4.3 | GLUL (40522_at) expression change upon IL-13 stimulation (HG-U95A, lot 2, Day 7, AI): −4.4 | GPX3 (770_at) expression change upon IL-13 stimulation (HG-U95A, lot 2, Day 7, AI): −2.8 | GSTA4 (40508_at) expression change upon IL-13 stimulation (HG-U95A, lot 2, Day 7, AI): −5.4 | HGNC, keratinocyte transglutaminase gene (35947_at) expression change upon IL-13 stimulation (HG-U95A, lot 2, Day 7, AI): −3.2 | KIAA0878 (32215_1_at) expression change upon IL-13 stimulation (HG-U95A, lot 2, Day 7, AI): −2.7 | KIAA1055 (39400_at) expression change upon IL-13 stimulation (HG-U95A, lot 2, Day 7, AI): −3 | LCE (40943_at) expression change upon IL-13 stimulation (HG-U95A, lot 2, Day 7, AI): −3.7 | LGALS1 (33412_at) expression change upon IL-13 stimulation (HG-U95A, lot 2, Day 7, AI): −6.2 | SCYD1 (823_at) expression change upon IL-13 stimulation (HG-U95A, lot 2, Day 7, AI): −24.6 | SDC1 (38127_at) expression change upon IL-13 stimulation (HG-U95A, lot 2, Day 7, AI): −2.9 | TGFBI (1385_at) expression change upon IL-13 stimulation (HG-U95A, lot 2, Day 7, AI): −4.9 | TNFAIP2 (38631_at) expression change upon IL-13 stimulation (HG-U95A, lot 2, Day 7, AI): −3.7 | AA199856 (72960_s_at) expression change upon IL-13 stimulation (HG-U95E, lot 1, Day 3, AI): 4.3 | AI859144, KIAA1127 (77546_at) expression change upon IL-13 stimulation (HG-U95E, lot 1, Day 3, AI): 4.2 | BAL (69619_at) expression change upon IL-13 stimulation (HG-U95E, lot 1, Day 3, AI): 3.5 | EHF (8S090_at) expression change upon IL-13 stimulation (HG-U95E, lot 1, Day 3, AI): 2.3 | EPSTI1 (90421_at) expression change upon IL-13 stimulation (HG-U95E, lot 1, Day 3, AI): 7.2 | FLJ20989 (91420_at) expression change upon IL-13 stimulation (HG-U95E, lot 1, Day 3, AI): 14.8 | FLJ22833 (67329_at) expression change upon IL-13 stimulation (HG-U95E, lot 1, Day 3, AI): 3.1 | GCNT3 (77751_at) expression change upon IL-13 stimulation (HG-U95E, lot 1, Day 3, AI): 4.9 | MFHAS1 (87816_g_at) expression change upon IL-13 stimulation (HG-U95E, lot 1, Day 3, AI): 3 | RPL4 (80675_at) expression change upon IL-13 stimulation (HG-U95E, lot 1, Day 3, AI): 2.2 | SCYA26 (90189_at) expression change upon IL-13 stimulation (HG-U95E, lot 1, Day 3, AI): 26.3 | H70665 (67357_at) expression change upon IL-13 stimulation [1]: 2.6 | SLC21A12 (87860_s_at) expression change upon IL-13 stimulation [1]: 2.7 | TBLR1 (87125_at) expression change upon IL-13 stimulation [1]: 2.8 | AA199856 (72960_s_at) expression change upon IL-13 stimulation (HG-U95E, lot 1, Day 3, IMM): 5.8 | AI859144, KIAA1127 (77546_at) expression change upon IL-13 stimulation (HG-U95E, lot 1, Day 3, IMM): 6.1 | AW024819 (72867_at) expression change upon IL-13 stimulation (HG-U95E, lot 1, Day 3, IMM): 4.2 | BAL (69619_at) expression change upon IL-13 stimulation (HG-U95E, lot 1, Day 3, IMM): 3.1 | EPSTI1 (90421_at) expression change upon IL-13 stimulation (HG-U95E, lot 1, Day 3, IMM): 9.9 | FLJ20989 (91420_at) expression change upon IL-13 stimulation (HG-U95E, lot 1, Day 3, IMM): 13.5 | GCNT3 (77751_at) expression change upon IL-13 stimulation (HG-U95E, lot 1, Day 3, IMM): 10.2 | RIG-1 (77749_at) expression change upon IL-13 stimulation (HG-U95E, lot 1, Day 3, IMM): 3.9 | SCYA26 (90189_at) expression change upon IL-13 stimulation (HG-U95E, lot 1, Day 3, IMM): 18.1 | EHF (85092_g_at) expression change upon IL-13 stimulation (HG-U95E, lot 1, Day 3, IMM (head as in Table 18)): 2.3 | AA199856 (72960_s_at) expression change upon IL-13 stimulation (HG-U95E, lot 1, Day 7, AI): 3.9 | AA806114 (80826_at) expression change upon IL-13 stimulation (HG-U95E, lot 1, Day 7, AI): 5.3 | AI803648 (89255_at) expression change upon IL-13 stimulation (HG-U95E, lot 1, Day 7, AI): 3.5 | AI859144, KIAA1127 (77546_at) expression change upon IL-13 stimulation (HG-U95E, lot 1, Day 7, AI): 2.6 | AI984061 (89834_at) expression change upon IL-13 stimulation (HG-U95E, lot 1, Day 7, AI): 2.7 | AW024819 (72867_at) expression change upon IL-13 stimulation (HG-U95E, lot 1, Day 7, AI): 2.6 | BCAT1 (72962_at) expression change upon IL-13 stimulation (HG-U95E, lot 1, Day 7, AI): 2.7 | CLDN1 (77660_at) expression change upon IL-13 stimulation (HG-U95E, lot 1, Day 7, AI): 2.6 | EHF (85092_g_at) expression change upon IL-13 stimulation (HG-U95E, lot 1, Day 7, AI): 2.1 | EPPK1 (86507_at) expression change upon IL-13 stimulation (HG-U95E, lot 1, Day 7, AI): 2.6 | FLJ20281 (83376_at) expression change upon IL-13 stimulation (HG-U95E, lot 1, Day 7, AI): 2.1 | FLJ20989 (91420_at) expression change upon IL-13 stimulation (HG-U95E, lot 1, Day 7, AI): 3.4 | FLJ21415 (89902_at) expression change upon IL-13 stimulation (HG-U95E, lot 1, Day 7, AI): 3.4 | FLJ22833 (67329_at) expression change upon IL-13 stimulation (HG-U95E, lot 1, Day 7, AI): 3.6 | GCNT3 (77751_at) expression change upon IL-13 stimulation (HG-U95E, lot 1, Day 7, AI): 2.5 | KIAA1685 (83541_at) expression change upon IL-13 stimulation (HG-U95E, lot 1, Day 7, AI): 2.6 | MASL1 (89651_at) expression change upon IL-13 stimulation (HG-U95E, lot 1, Day 7, AI): 4.3 | MFHAS1 (87816_g_at) expression change upon IL-13 stimulation (HG-U95E, lot 1, Day 7, AI): 3.4 | RIG-1 (77749_at) expression change upon IL-13 stimulation (HG-U95E, lot 1, Day 7, AI): 3.4 | SCYA26 (90189_at) expression change upon IL-13 stimulation (HG-U95E, lot 1, Day 7, AI): 30.4 | vipirin (84893_at) expression change upon IL-13 stimulation (HG-U95E, lot 1, Day 7, AI): 2.7 | NIFK (89320_at) expression change upon IL-13 stimulation [2]: 2.9 | SLC1A5 (34759_at) expression change upon IL-13 stimulation [2]: 2.5 | SLC17A5 (88617_at) expression change upon IL-13 stimulation [2]: 2.7 | SLC21A12 (87860_s_at) expression change upon IL-13 stimulation [2]: 2.7 | rab11-FIP1 (89338_at) expression change upon IL-13 stimulation [2]: 4.4 | AA199856 (72960_s_at) expression change upon IL-13 stimulation (HG-U95E, lot 1, Day 7, IMM): 3.8 | AA806114 (80826_at) expression change upon IL-13 stimulation (HG-U95E, lot 1, Day 7, IMM): 5.3 | AI803648 (89255_at) expression change upon IL-13 stimulation (HG-U95E, lot 1, Day 7, IMM): 7 | BAL (69619_at) expression change upon IL-13 stimulation (HG-U95E, lot 1, Day 7, IMM): 2.2 | BCAT1 (72962_at) expression change upon IL-13 stimulation (HG-U95E, lot 1, Day 7, IMM): 3.4 | EPPK1 (86507_at) expression change upon IL-13 stimulation (HG-U95E, lot 1, Day 7, IMM): 3.6 | EPSTI1 (90421_at) expression change upon IL-13 stimulation (HG-U95E, lot 1, Day 7, IMM): 3.4 | FLJ22833 (67329_at) expression change upon IL-13 stimulation (HG-U95E, lot 1, Day 7, IMM): 3.7 | GCNT3 (77751_at) expression change upon IL-13 stimulation (HG-U95E, lot 1, Day 7, IMM): 3.5 | MFHAS1 (87816_g_at) expression change upon IL-13 stimulation (HG-U95E, lot 1, Day 7, IMM): 3.1 | RIG-1 (77749_at) expression change upon IL-13 stimulation (HG-U95E, lot 1, Day 7, IMM): 5.1 | SCYA26 (90189_at) expression change upon IL-13 stimulation (HG-U95E, lot 1, Day 7, IMM): 35.1 | vipirin (84893_at) expression change upon IL-13 stimulation (HG-U95E, lot 1, Day 7, IMM): 6.6 | AA199856 (72960_s_at) expression change upon IL-13 stimulation (HG-U95E, lot 2, Day 3, AI): 18.8 | AA779704 (68562_at) expression change upon IL-13 stimulation (HG-U95E, lot 2, Day 3, AI): 2.8 | AA806114 (80826_at) expression change upon IL-13 stimulation (HG-U95E, lot 2, Day 3, AI): 7.2 | AI859144, KIAA1127 (77546_at) expression change upon IL-13 stimulation (HG-U95E, lot 2, Day 3, AI): 5.5 | BAL (69619_at) expression change upon IL-13 stimulation (HG-U95E, lot 2, Day 3, AI): 3.1 | BCAT1 (72962_at) expression change upon IL-13 stimulation (HG-U95E, lot 2, Day 3, AI): 10.5 | EHF (8S090_at) expression change upon IL-13 stimulation (HG-U95E, lot 2, Day 3, AI): 3.3 | EHF (85092_g_at) expression change upon IL-13 stimulation (HG-U95E, lot 2, Day 3, AI): 3.3 | EPSTI1 (90421_at) expression change upon IL-13 stimulation (HG-U95E, lot 2, Day 3, AI): 9.4 | FLJ22833 (67329_at) expression change upon IL-13 stimulation (HG-U95E, lot 2, Day 3, AI): 6.1 | MASL1 (89651_at) expression change upon IL-13 stimulation (HG-U95E, lot 2, Day 3, AI): 3.2 | MFHAS1 (87816_g_at) expression change upon IL-13 stimulation (HG-U95E, lot 2, Day 3, AI): 3.5 | OAS2 (90662_at) expression change upon IL-13 stimulation (HG-U95E, lot 2, Day 3, AI): 4.1 | RIG-1 (77749_at) expression change upon IL-13 stimulation (HG-U95E, lot 2, Day 3, AI): 6.4 | RPL4 (80675_at) expression change upon IL-13 stimulation (HG-U95E, lot 2, Day 3, AI): 2.3 | SCYA26 (90189_at) expression change upon IL-13 stimulation (HG-U95E, lot 2, Day 3, AI): 16.7 | vipirin (84893_at) expression change upon IL-13 stimulation (HG-U95E, lot 2, Day 3, AI): 15.4 | H70665 (67357_at) expression change upon IL-13 stimulation [3]: 2.1 | NIFK (89320_at) expression change upon IL-13 stimulation [3]: 2.1 | TBLR1 (87125_at) expression change upon IL-13 stimulation [3]: 4.4 | NIFK (89320_at) expression change upon IL-13 stimulation (HG-U95E, lot 2, Day 7): 3.4 | SLC1A5 (34759_at) expression change upon IL-13 stimulation (HG-U95E, lot 2, Day 7): 2.9 | SLC17A5 (88617_at) expression change upon IL-13 stimulation (HG-U95E, lot 2, Day 7): 2.3
